Assay results: patent EP0490549B1, “Stabilisation of pharmaceutical compositions comprising calcitonin” (CIBA-GEIGY AG, priority 1990, dated 1995)
“Also recorded” adds a separate entry of the source. Where two headings read alike, the source gives them in different places.

How the values were obtained:
[1] = Extrapolated time of fibrillation (ln/ln plot of fibrillation time against hCT concentration); settings: at 4°C; solutions with 5-9 mg/ml hCT in 0.001% acetic acid; from measurements up to 100 mg/ml hCT using the ln/ln plot
[2] = Stability of aqueous hCT solutions against fibrillation or precipitation (solution remains clear on storage); assay type: physicochemical; settings: 5 mg/ml hCT; acetic acid 0.0001%, 0.001%, 0.01%, 0.1% and 1.0%; after 8 months
[3] = as above; settings: for ability of an acid to produce a stable solution of hCT (solution remains clear): storing for 24 hours at 25°C; for solution is stable for: Example 1 repeated (5 mg/ml hCT) with acetic acid replaced by the named acid
Protocol: The ability of an acid to produce a stable solution can be readily determined by making up a solution and storing it for 24 hours at 25°C.
Example 1 is repeated except that the solutions also contain 0.5% hydroxypropylmethylcellulose.

[4] = additive mixed with the hCT solution after preparation

Row | Compound | ability of an acid to produce a stable solution of hCT (solution remains clear) [3] | solution is stable for [3] | also measured
1 | CC[C@H](C)[C@H](NC(=O)[C@H](C)NC(=O)[C@@H](NC(=O)[C@H](CCC(N)=O)NC(=O)[C@@H]1CCCN1C(=O)[C@H](Cc1ccccc1)NC(=O)[C@@H](NC(=O)[C@H](Cc1c[nH]cn1)NC(=O)[C@H](Cc1ccccc1)NC(=O)[C@H](CCCCN)NC(=O)[C@H](CC(N)=O)NC(=O)[C@H](Cc1ccccc1)NC(=O)[C@H](CC(=O)O)NC(=O)[C@H](CCC(N)=O)NC(=O)[C@@H](NC(=O)[C@H](Cc1ccc(O)cc1)NC(=O)[C@@H](NC(=O)CNC(=O)[C@H](CC(C)C)NC(=O)[C@H](CCSC)NC(=O)[C@@H]1CSSC[C@H](N)C(=O)NCC(=O)N[C@@H](CC(N)=O)C(=O)N[C@@H](CC(C)C)C(=O)N[C@@H](CO)C(=O)N[C@@H]([C@@H](C)O)C(=O)N1)[C@@H](C)O)[C@@H](C)O)[C@@H](C)O)[C@@H](C)O)C(=O)NCC(=O)N[C@H](C(=O)NCC(=O)N[C@@H](C)C(=O)N1CCC[C@H]1C(N)=O)C(C)C [hCT] | – | – | stability predicted [1]: more than 5 years; stability of solution [2]: stable and perfectly clear
2 | N[C@H](CCC(=O)O)C(=O)O [D-glutamic acid] | do not form stable solutions | – | –
3 | CCO [ethanol] | – | – | effect of additive on the stability of the hCT solution [3]: do not diminish the stability
4 | O=C1O[C@H]([C@@H](O)CO)C(O)=C1O [ascorbic acid] | form stable solutions | over 4 days | –
5 | benzalkonium chloride | – | – | effect of additive on the stability of the hCT solution [3, 4]: do not diminish the stability
6 | [H]/N=C(\N/C(=N/[H])NCCCCCCNC(=N)NC(=N)Nc1ccc(Cl)cc1)Nc1ccc(Cl)cc1 [chlorhexidine diacetate] | – | – | effect of additive on the stability of the hCT solution [3]: do not diminish the stability
7 | O=CO [formic acid] | form stable solutions | over 4 days | –
8 | O=C(O)CCCC(=O)O [glutaric acid] | form stable solutions | over 4 days | –
9 | O=C(O)C(O)C(O)C(=O)O (racemic) [DL-tartaric acid] | form stable solutions | over 4 days | –
10 | Oc1ccccc1 [phenol] | form stable solutions | – | –
11 | O=C(O)CC(O)(CC(=O)O)C(=O)O [citric acid] | form stable solutions | over 4 days | –
12 | OC[C@H]1O[C@@](CO)(O[C@H]2O[C@H](CO)[C@@H](O)[C@H](O)[C@H]2O)[C@@H](O)[C@@H]1O [sucrose] | – | – | effect of additive on the stability of the hCT solution [3]: do not diminish the stability
13 | O=C(O)C(O)C(O)C(=O)O [L-α-tartaric acid] | form stable solutions | over 4 days | –
14 | O=C(O)CCCCC(=O)O [adipic acid] | form stable solutions | over 4 days | –
15 | OC[C@H]1O[C@@H](O[C@H]2[C@H](O)[C@@H](O)C(O)O[C@@H]2CO)[C@H](O)[C@@H](O)[C@H]1O (stereo partly shown) [lactose] | – | – | effect of additive on the stability of the hCT solution [3]: do not diminish the stability
16 | OC[C@@H](O)[C@@H](O)[C@H](O)[C@H](O)CO [mannitol] | – | – | effect of additive on the stability of the hCT solution [3]: do not diminish the stability
17 | Cl [hydrochloric acid] | form stable solutions | over 4 days | –
18 | O=C(O)CN(CCN(CC(=O)O)CC(=O)O)CC(=O)O [ethylene - diamine tetraacetic acid] | form stable solutions | – | –
19 | N[C@@H](CCC(=O)O)C(=O)O [L-glutamic acid] | – | over 4 days | –
20 | OC[C@H]1O[C@H](O[C@H]2O[C@H](CO)[C@@H](O)[C@H](O)[C@H]2O)[C@H](O)[C@@H](O)[C@@H]1O [trehalose] | – | – | effect of additive on the stability of the hCT solution [3]: do not diminish the stability
21 | CC(C)(C)CC(C)(C)c1ccc(OCCOCC[N+](C)(C)Cc2ccccc2)cc1 [benzethonium chloride] | – | – | effect of additive on the stability of the hCT solution [3, 4]: do not diminish the stability; also recorded: improve the stability
22 | N[C@@H](CC(=O)O)C(=O)O [aspartic acid] | do not form stable solutions | – | –

Continued, in another order:

Row | ability of an acid to produce a stable solution of hCT (solution remains clear) [3] | solution is stable for [3] | Compound | also measured
23 | do not form stable solutions | – | sulphuric acid | –
24 | do not form stable solutions | – | O=C(O)[C@H](O)[C@@H](O)[C@H](O)[C@H](O)CO [gluconic acid] | –
25 | form stable solutions | over 4 days | O=C(O)CC(=O)O [malonic acid] | –
26 | do not form stable solutions | – | O=C(O)/C=C\C(=O)O [maleic acid] | –
27 | – | over 4 days | O=C(O)CCC(=O)O [succinic acid] | –
